Data from patent publication US5158939A, “Method of stimulating the immune systems of animals and compositions useful therefor” (priority 1990, dated 1992).
Entries after “also recorded” stand apart in the source; their conditions may differ.

Tests used:
[1] = test system: RAW 264.7 murine macrophage cells; test: Cachectin/TNF production by RAW 264.7 cells, immunoblot; format: cell-based
Description: For the […] to activate the RAW 264.7 murine macrophage cell line, we chose the toxic deep rough chemotype LPS (ReLPS) from Escherichia coli D31m4, which was recently purified and characterized^15. […] This is a clear example of a lipid A derivative showing strong antagonism against a toxic agonist in the induction of cachectin.
The immunoblot method was used to quantitate the cachectin/TNF production by RAW 264.7 murine macrophage cells. RAW 264.7 cells^4,16 were seeded in 24-well plates (Nunc) at a density of 3×10^5 cells/well in Dulbecco's modified Eagle's medium supplemented with 5 percent fetal calf serum. After 12 hours, cell monolayers were washed twice with 1 ml of serum-free medium and then left covered with […] of the same. An aqueous suspension of DPLA and/or ReLPS was then added to a final concentration indicated. Cells were incubated for 12 hours, after which the medium was removed for measurement of TNF by immunoblotting. One hundred μl of medium was mixed with 100 μl of SDS-containing sample buffer, heated to 100° C. for 5 minutes, and subjected to electrophoresis in a 10-15% polyacrylamide gradient gel. Proteins were then transferred to nitrocellulose electrophoretically, and TNF was visualized through the use of a rabbit anti-mouse TNF polyclonal serum^3,5 applied at a 1:100 dilution, followed by alkaline phosphatase-conjugated goat anti-rabbit IgG (Bio-Rad).
Bands were visualized using nitroblue tetrazolium. Approximately 0.1 ng of cachectin/TNF may be detected as a band. The antiserum also recognized the processing intermediates (prohormones) on Western blot.

[2] = test system: RAW 264.7 cells; test: TNF production by RAW 264.7 cells, dilution for 50% killing of indicator cell line L929; format: cell-based, murine; settings: for Dilution to get 50% killing: Table 1
Description: The TNF unit is derived by determining how far one can dilute the supernatant of the culture to achieve 50% killing of an indicator cell line.
TNF unit was derived by determining dilution of culture supernatant that kills 50 percent of the indicator cell line.
DPLA was added 2 hours before exposing culture to ReLPS. The ReLPS and DPLA were complexed with bovine serum albumin.^1

[3] = test system: peritoneal macrophages; test: Induction of IL-1 in thioglycollate-elicited peritoneal macrophages (comitogenic thymocyte assay); format: cell-based, BDF1 mice; settings: for IL-1 induction, CPM: SD in parentheses
Description: 1L-1 assay--Peritoneal exudate cells were harvested from BDF1 mice 48 h after an intraperitoneal injection of thioglycollate. […] Macrophages were either pretreated with R. sphaeroides DPLA (0.1-10 μg/ml) followed by the addition of toxic Re LPS (0.1 μg) after 2 h, or immediately stimulated with Re LPS (0.01-1.00 μg/ml). Control wells were treated with 10 μl of media containing 0.5% triethylamine. Cultures were incubated at 37° C. in the presence of 5% CO2 for 18 h at which time the supernatants were collected and frozen at -20° C. until assayed. 1L-1 activity was determined by the comitogenic thymocyte assay.^25
Peritoneal exudate cells were harvested from BDF1 mice 48 h after an intraperitoneal injection of thioglycollate as described previously (Lederer and Czuprynki). Macrophages were either pretreated with R. sphaeroides DPLA (0.1-10 μg/ml) followed by addition of toxic ReLPS (0.1 μg), or immediately stimulated with ReLPS (0.01-1.00 μg/ml). Control wells were treated with 10 μl of media with 0.5% triethylamine. Cultures were incubated at 37° C. in the presence of 5% CO2 for 18 h at which time the supernatants were collected and frozen at -20° C. until assayed.
ReLPS was added to the culture 2 h after adding the R. sphaeroides DPLA. […] Standard deviation in CPM are given in parentheses.

## CCCCCCC=CCCCCCC(=O)OC(CCCCCCCCCCC)CC(=O)NC1C(OCC2OC(OP(=O)(O)O)C(NC(=O)CC(=O)CCCCCCCCCCC)C(OC(=O)CC(O)CCCCCCC)C2O)OC(CO)C(OP(=O)(O)O)C1OC(=O)CC(O)CCCCCCC (stereo not drawn) [DPLA]
[1]; DPLA 1-1000 ng/ml
  induction of cachectin (immunoblot): not able to induce the formation of cachectin
[1]; DPLA 10^3 ng/ml + ReLPS 10 ng/ml (ReLPS:DPLA 1:100)
  inhibition of ReLPS-induced cachectin (immunoblot): definite inhibition
[1]; DPLA 10^4 ng/ml
  induction of cachectin (immunoblot): only slight induction
[1]; in words
  blocking of ReLPS-induced cachectin/TNF (immunoblot): blocks the induction of cachectin; also recorded: blocking of induction
[1]; with ReLPS 10 ng/ml
  DPLA concentration at which inhibition was probably maximal: < 10^4 ng/ml
[2]; DPLA alone 10^4 ng/ml
  induction of TNF: measurable but low level in the induction of TNF
[2]; Mus musculus, RAW264.7, Table 3, DPLA 10 ng/ml, ReLPS 1.0 ng/ml (ReLPS:DPLA 1:10), read-out: Inhibition of induction of TNF by ReLPS
  inhibition at 0.01 µg/mL: 55%
[2]; Mus musculus, RAW264.7, Table 3, DPLA 100 ng/ml, ReLPS 1.0 ng/ml (1:100), read-out: Inhibition of induction of TNF by ReLPS
  inhibition at 0.1 µg/mL: 95%
[2]; Mus musculus, RAW264.7, Table 3, DPLA 10000 ng/ml, ReLPS 1.0 ng/ml (1:10^4), read-out: Inhibition of induction of TNF by ReLPS
  inhibition at 10 µg/mL: 81%
[2]; RAW 264.7 cells, indicator cell line L929
  induction of TNF: not effective in the induction of TNF; also recorded: lack of induction
[2]; RAW 264.7 cells, in words
  blocking of TNF induction by ReLPS: effectively antagonize the induction of TNF by toxic ReLPS in a dose-dependent manner; also recorded: block the induction of cachectin (TNF); also recorded: blocking of induction
[2]; DPLA 10 ng/ml 2 h before ReLPS 1.0 ng/ml
  Dilution to get 50% killing: 829
[2]; DPLA 100 ng/ml 2 h before ReLPS 1.0 ng/ml
  Dilution to get 50% killing: 112
[2]; DPLA 1000 ng/ml 2 h before ReLPS 1.0 ng/ml
  Dilution to get 50% killing: 86
[2]; DPLA 10,000 ng/ml 2 h before ReLPS 1.0 ng/ml
  Dilution to get 50% killing: 234
[2]; DPLA alone 10 ng/ml
  Dilution to get 50% killing: 0
[2]; DPLA alone 100 ng/ml
  Dilution to get 50% killing: 0
[2]; DPLA alone 1000 ng/ml
  Dilution to get 50% killing: 71
[2]; DPLA alone 10,000 ng/ml
  Dilution to get 50% killing: 346
[2]; Table 3, DPLA 10 ng/ml 2 h before ReLPS 1.0 ng/ml
  Dilution for 50% killing: 2287
[2]; Table 3, DPLA 100 ng/ml 2 h before ReLPS 1.0 ng/ml
  Dilution for 50% killing: 269
[2]; Table 3, DPLA 1000 ng/ml 2 h before ReLPS 1.0 ng/ml
  Dilution for 50% killing: 201
[2]; Table 3, DPLA 10000 ng/ml 2 h before ReLPS 1.0 ng/ml
  Dilution for 50% killing: 973
[2]; Table 3, DPLA alone 10 ng/ml, complexed with BSA
  Dilution for 50% killing: < 10
[2]; Table 3, DPLA alone 100 ng/ml, complexed with BSA
  Dilution for 50% killing: 19
[2]; Table 3, DPLA alone 1000 ng/ml, complexed with BSA
  Dilution for 50% killing: 201
[2]; Table 3, DPLA alone 10000 ng/ml, complexed with BSA
  Dilution for 50% killing: 764
[3]; DPLA 0.1 μg/ml 2 h before ReLPS 0.1 μg/ml
  IL-1 induction, CPM: 51,999 (4860) CPM
[3]; DPLA 0.1 μg/ml + ReLPS 0.1 μg/ml
  IL-1 induction, CPM - Blank: 44,211 CPM
[3]; DPLA 1.0 μg/ml 2 h before ReLPS 0.1 μg/ml
  IL-1 induction, CPM: 28,276 (4860) CPM
[3]; DPLA 1.0 μg/ml + ReLPS 0.1 μg/ml
  IL-1 induction, CPM - Blank: 20,491 CPM
[3]; DPLA 10.0 μg/ml 2 h before ReLPS 0.1 μg/ml
  IL-1 induction, CPM: 5,892 (886) CPM
[3]; DPLA 10.0 μg/ml + ReLPS 0.1 μg/ml
  IL-1 induction, CPM - Blank: 0 CPM
[3]; DPLA 10.0 μg/ml, ReLPS 0.1 μg/ml (1:100)
  % Inhibition of IL-1 induction by ReLPS: total
[3]; DPLA alone 0.1 μg/ml
  IL-1 induction, CPM - Blank: 0 CPM
  IL-1 induction, CPM: 3,511 (616) CPM
[3]; DPLA alone 1.0 μg/ml
  IL-1 induction, CPM - Blank: 0 CPM
  IL-1 induction, CPM: 2,911 (383) CPM
[3]; DPLA alone 10.0 μg/ml
  IL-1 induction, CPM - Blank: 0 CPM
